Consider one compound from publication PMC11635053, “Development of a homotrimeric PSMA radioligand based on the NOTI chelating platform” (EJNMMI Radiopharmacy and Chemistry, 2024).

Where only a bound is given, the exact number is not on record here.

The target in data set [1] is T1, PSMA (Homo sapiens, UniProt Q04609).
T1 construct: host or cells: LNCaP
The data set is described as follows: Competitive binding assay in LNCaP cells with [177Lu]Lu-PSMA-617 as radioligand. The following applies: LNCaP cells, radioligand [177Lu]Lu-PSMA-617, 2 h at r.t.; read-out: IC50 (half maximum competitive inhibitory concentration). The protocol:
In order to establish a structure–activity relationship, the binding affinity of the metal-free and ^natGa-complexes of the conjugates 7, 8, and 9 were determined in the PSMA-positive human prostate cancer cell line LNCaP by a competitive binding assay as previously reported using [^177Lu]Lu-PSMA-617 as the radioligand (Stemler et al. [2021]). The conjugate Glu-CO-Lys-Ahx-HBED-CC (PSMA-11) was included as the control.
The competitive binding assay was carried out using a MultiScreen®HTS Vacuum Manifold system (Merck, Germany) with 96-well filter plates. Serial dilutions of the metal-free conjugates and corresponding ^natGa complexes were prepared to obtain 7 final concentrations ranging from 0 to 1000 nM for each compound. PSMA-11 was also tested as control. Experiments were performed twice in triplicate for each compound. Freshly prepared ^177Lu-labeled PSMA-617 was used as the radioligand. A volume of 1 μL of [^177Lu]Lu-PSMA-617 stock solution (2.83 μM) was added into each tube of the dilution series (radioligand concentration 3.14 nM). For the experiment, 10^5 LNCaP cells were seeded into each well. The final volume of each well was 150 μL (100 μL cells in medium + 50 μL inhibitor in PBS). The experiment was incubated for 2 h at r.t. in a plate shaker. Then, the supernatants were removed by vacuum. Wells were furthermore washed out with ice-cold PBS (3 × 200 μL, pH 7.4). The filters were punched into tubes for the subsequent quantification of the activity in a Gamma-counter. A nonlinear regression algorithm was applied by the software GraphPad Prism to determine the specific inhibitory concentrations of 50% for the tested radiotracers.

The subject of data set [2] is human serum proteins. The data set is described as follows: in vitro. The following applies: male, Protein binding. It is filed as in vitro ADME. The protocol:
To determine the protein bound fraction of each trimeric radiotracer, 100 μL of the radiolabeling solution of the corresponding ^68Ga-labeled conjugate were added to preheated (37 °C) 1000 μL human serum (male, AB, Sigma Aldrich, USA) in triplicates. Samples were incubated for 1 h at 37 °C. After cooling to r.t., the samples were centrifuged utilizing molecular cutoff (30 kDa) centrifuge tubes at 4 G for 5 min at 4 °C. The filters were additionally rinsed with PBS buffer (2 × 100 μL). The background subtracted activity in the filters and the filtrates were determined in a Gamma counter and the percentage of protein bound fractions were calculated.

T1 sequence (Q04609 whole entry): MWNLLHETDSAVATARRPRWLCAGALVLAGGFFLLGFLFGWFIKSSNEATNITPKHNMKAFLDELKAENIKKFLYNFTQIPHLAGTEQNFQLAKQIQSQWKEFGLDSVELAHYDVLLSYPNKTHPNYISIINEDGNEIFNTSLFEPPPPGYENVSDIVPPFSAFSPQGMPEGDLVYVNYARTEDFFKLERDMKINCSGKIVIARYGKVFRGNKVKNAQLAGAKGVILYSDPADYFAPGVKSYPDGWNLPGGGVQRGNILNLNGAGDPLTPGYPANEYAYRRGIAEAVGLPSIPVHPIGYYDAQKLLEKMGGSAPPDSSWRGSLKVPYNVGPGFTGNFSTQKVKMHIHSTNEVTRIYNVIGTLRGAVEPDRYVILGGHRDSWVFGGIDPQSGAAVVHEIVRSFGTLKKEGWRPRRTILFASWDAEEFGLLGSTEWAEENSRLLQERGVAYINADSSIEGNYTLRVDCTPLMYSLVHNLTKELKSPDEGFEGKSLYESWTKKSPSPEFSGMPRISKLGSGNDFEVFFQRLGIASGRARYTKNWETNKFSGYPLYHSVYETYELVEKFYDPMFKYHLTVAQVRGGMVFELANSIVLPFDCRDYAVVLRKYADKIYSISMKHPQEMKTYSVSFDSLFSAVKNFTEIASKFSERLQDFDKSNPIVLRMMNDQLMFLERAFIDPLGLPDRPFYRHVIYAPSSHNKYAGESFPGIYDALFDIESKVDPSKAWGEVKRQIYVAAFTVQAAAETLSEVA

Consider `O=C(O)CC[C@H](NC(=O)N[C@@H](CCCCNC(=O)[C@H](Cc1ccc2ccccc2c1)NC(=O)[C@H]1CC[C@H](CNC(=O)CCCCn2ccnc2CN2CCN(Cc3nccn3CCCCC(=O)NC[C@H]3CC[C@H](C(=O)N[C@@H](Cc4ccc5ccccc5c4)C(=O)NCCCC[C@H](NC(=O)N[C@@H](CCC(=O)O)C(=O)O)C(=O)O)CC3)CCN(Cc3nccn3CCCCC(=O)NC[C@H]3CC[C@H](C(=O)N[C@@H](Cc4ccc5ccccc5c4)C(=O)NCCCC[C@H](NC(=O)N[C@@H](CCC(=O)O)C(=O)O)C(=O)O)CC3)CC2)CC1)C(=O)O)C(=O)O` [^nat/68Ga-9, metal not drawn], for which the IC50 in data set [1] was determined as 4.8 nM. The same compound yielded a fraction unbound at 1 h in data set [2] of under 0.05.

A word on the fraction unbound: it is the share of the substance not bound to proteins or other matrix. A lower fraction unbound goes with little free substance.
